According to patent US20180353501A1 (Arvinas, Inc., priority 2017, published 2018):

Target: T1, His-p38α:PROTAC:GST-VBC ternary complex (Homo sapiens, UniProt P40337+Q16539)
T1 construct: encodes a region spanning amino acids 2-360 of the human p38α kinase; made in house; host or cells: E. coli (BL21-CodonPlus(DE3)-RIPL for p38α; BL21(DE3) for GST-VBC)
Experiment: AlphaLISA ternary complex assay
Format: binding
Conditions: increasing PROTAC concentrations; VBC and p38α 150 nM
Description: FIGS. 14A, 14B, and 14C. p38α selectivity is discriminated by ternary complex formation. (A) Only p38α incubated in the presence of exemplary compound 50 can be immunoprecipitated with GST-tagged VHL/EloB/EloC (VBC). Immobilized VBC was used as a bait to trap purified p38α in the presence of vehicle (DMSO), compound 50, or compound 46 (represented in micromolar concentrations). The rightmost lane represents a 1:25 dilution of initial input protein used in each pull-down. (B) Proximity-based AlphaLISA assay detects significant p38α:compound 50:VHL ternary complex, but no p38α:compound 46:VHL ternary complex. His-p38α and GST-VBC were incubated in the presence of increasing concentrations of compound 50 and compound 46 and the extent of ternary complex formation was assessed by excitation with incident light with 1=680 nm and capture of the emission light at 1=615 nm. Error bars represent the SD from quadruplicate experiments. […] FLAGimmunoprecipitated lysates were separated by SDS-PAGE and assessed via western blots detecting HA (Ub). […]
Following this logic, to the present disclosure seeks to describe the selectivity of exemplary compound 50 for p38α at the ternary complex level through the use of an in vitro ternary complex pull-down assay. […] Similarly, exemplary PROTACs 46 and 50 were evaluated in a proximity-based luminescence assay (AlphaLISA) to detect ternary complex formation. […]

T1 sequence (Q16539 2-360 limits assumed): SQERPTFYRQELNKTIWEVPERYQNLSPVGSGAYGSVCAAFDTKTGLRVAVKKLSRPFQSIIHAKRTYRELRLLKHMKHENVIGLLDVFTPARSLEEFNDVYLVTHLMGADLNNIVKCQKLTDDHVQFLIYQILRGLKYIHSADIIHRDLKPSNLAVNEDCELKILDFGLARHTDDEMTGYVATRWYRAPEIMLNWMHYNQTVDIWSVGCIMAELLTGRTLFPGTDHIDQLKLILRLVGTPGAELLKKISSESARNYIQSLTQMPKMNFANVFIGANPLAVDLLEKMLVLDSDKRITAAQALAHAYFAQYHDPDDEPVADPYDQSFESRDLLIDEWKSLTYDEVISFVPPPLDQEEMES
T1 sequence (P40337 whole entry, the tested form may be a part): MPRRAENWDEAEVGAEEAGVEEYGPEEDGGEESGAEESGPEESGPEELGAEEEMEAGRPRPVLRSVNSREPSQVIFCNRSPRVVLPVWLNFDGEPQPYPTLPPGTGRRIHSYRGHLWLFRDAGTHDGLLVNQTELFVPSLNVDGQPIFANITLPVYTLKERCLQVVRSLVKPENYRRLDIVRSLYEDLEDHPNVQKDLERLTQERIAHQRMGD
T1 sequence (Q15370 whole entry partner, the tested form may be a part): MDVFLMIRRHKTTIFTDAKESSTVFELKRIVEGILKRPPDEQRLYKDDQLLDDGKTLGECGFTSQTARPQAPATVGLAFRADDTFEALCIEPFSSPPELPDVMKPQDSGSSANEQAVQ
T1 sequence (Q15369 whole entry partner, the tested form may be a part): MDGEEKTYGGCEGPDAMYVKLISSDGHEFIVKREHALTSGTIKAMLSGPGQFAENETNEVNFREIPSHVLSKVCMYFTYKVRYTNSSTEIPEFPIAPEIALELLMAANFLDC

SMILES | p38α:PROTAC:VHL ternary complex formation (AlphaLISA)
COc1cc2c(Oc3ccc(NC(=O)C4(C(=O)Nc5ccc(F)cc5)CC4)cc3F)ccnc2cc1OCCOCCOCCOc1cc(-c2scnc2C)ccc1CNC(=O)[C@@H]1C[C@@H](O)CN1C(=O)[C@H](C(C)C)N1Cc2ccccc2C1=O [compound 46] | no such ternary species is detectable
COc1cc2c(Oc3ccc(NC(=O)C4(C(=O)Nc5ccc(F)cc5)CC4)cc3F)ccnc2cc1OCCCCOCCCCOCC(=O)N[C@H](C(=O)N1C[C@H](O)C[C@H]1C(=O)NCc1ccc(-c2scnc2C)cc1)C(C)(C)C [compound 50, N-(3-fluoro-4-((7-(4-(4-(2-(((S)-1-((2S,4R)-4-hydroxy-2-((4-(4-methylthiazol-5-yl)benzyl)carbamoyl)pyrrolidin-1-yl)-3,3-dimethyl-1-oxobutan-2-yl)amino)-2-oxoethoxy)butoxy)buto-xy)-6-methoxyquinolin-4-yl)oxy)phenyl)-N-(4-fluorophenyl)cyclopropane-1,1-dicarboxa-mide] | displays a ternary VHL:PROTAC:p38α complex
